Results taken from US20150329483A1, “Methods and Pharmaceutical Compositions for the Treatment of X-Linked Charcot-Marie-Tooth” (INSERM (Institut National de la Santé et de la Recherche …, priority 2012, published 2015).

Assays:
S3 cells = experiment: Connexon activity of S3 cells treated with KN62 and KN93 derivatives; format: cell-based, mouse; conditions: for Connexon activity at 0.1 μM / Connexon activity at 1 μM / Connexon activity at 10 μM / Connexon activity at 50 μM: 24 hours of treatment
Protocol: Animal cells and wild-type mouse cells transgenic animals S3 created in the as described in EXAMPLE 13 are cultured in 96-well microplates. We have shown that the S3 cells have an abnormality of the connexon activity due to the mutation of connexin 32 introduced in this line. […] The cells were incubated with new molecules and connexon activity was evaluated. […] Regarding KN93 derivatives most substitutions suppress the activity “correction activity connexon” molecules, excepting for a few molecules.
S3 cells were treated with various molecules, at increasing concentrations. Moreover transgenic animals of the same lineage cells and untreated transgenic animals are used as controls. The connexon activity was assessed after 24 hours of treatment. The activity is expressed in thousands of arbitrary fluorescence units. […] As a comparison we use the reference molecule KN 93 at a concentration of 10 μM.

S3 fibroblasts [1] = experiment: Centrosome number per cell (γ-tubulin labelling); format: cell-based, mouse; conditions: for >centro (percentage of cells with more than two centrosomes) / 2 centro (percentage of cells with two centrosomes) / 1 centro (percentage of cells with one centrosome): S3 fibroblasts cultured with inhibitor; for >centro (percentage of cells with more than two centrosomes): WT 3, untreated S3 18; for 2 centro (percentage of cells with two centrosomes): WT 18, untreated S3 22; for 1 centro (percentage of cells with one centrosome): WT 79%, untreated S3 60%; for Effect on centrosome number per cell, in words: S3 fibroblasts treated with inhibitor
Protocol: (§1) For the isolation of fibroblasts a small fragment of mouse ear was removed, dipped in alcohol solution, cut into small pieces in a sterile Petri dish in the presence of PBS containing fungicide (fonigizon) diluted 1/250, and transferred to 2-ml tubes containing 1 ml dissociation buffer (DMEM plus 20% FBS, 1 mg/ml BSA, 0.5 mg/ml collagenase, 0.25 mg/ml trypsin and penicillin/streptomycin). The tubes were incubated in a water bath with agitation for 1 h at 37° C. Fibroblast medium (DMEM, 10% FBS, 2 mM Gln, 100 U/ml penicillin, 100 μg/ml streptomycin) was added to each tube and the samples were centrifuged at 400 g for 10 min. The cells were re-suspended in fibroblast medium, seeded into Petri dishes and placed in an incubator at 37° C., 5% CO2. The culture medium was replaced every two days. When the cultures reached sub-confluence, the cells were trypsinized and expanded into tissue culture flasks. All experiments were performed using cells between passage numbers four and eight.
Cells were grown on glass coverslips for 24 h to allow cultures to reach 80% confluence. To measure the number of centrosomes, cells were fixed with 4% PFA, permeabilized with methanol at −20° C. for 8 min and blocked with 0.5% Triton X-100 in PBS for 30 min at RT. To detect g-tubulin, cells were incubated overnight at 4° C. with a mouse anti-g-tubulin antibody (GTU-88; Sigma) diluted 1/1000 in PBS containing 0.1% milk and 0.05% Triton X-100. After washing, the cells were incubated for 1 h at RT with Cy3-conjugated goat antimouse IgG secondary antibody (Caltag Laboratories) diluted 1/2000 in PBS containing 0.1% milk and 0.05% Triton X-100. The preparations were counterstained with DAPI in Vectashield mounting medium (Vector Laboratories). Fluorescent images were acquired with a microscope (Leica DMR) equipped with a PL APO objective.
Number of centrosomes per cell. Fibroblasts from WT and S3 have been cultured with or without CamKII inhibitors. Centrosome number per cell has been evaluated as described in methods. […] This experiment has been repeated three time.

S3 fibroblasts [2] = experiment: Nuclear volume evaluation (DAPI, ImageJ) in cultured fibroblasts; format: cell-based, mouse; conditions: for Nuclear Volume: S3 fibroblasts cultured 24 hrs with CamKII inhibitor, WT 8607, untreated S3 15029; for Effect on nuclear (cellular) volume, in words: S3 fibroblasts treated with inhibitor
Protocol: as §1
Nuclei were stained with DAPI and nuclear volume was evaluated with ImageJ software.
Nuclear volume correction. Fibroblasts from Wild type (WT) and S3 transgenic mouse have been cultured for 24 hrs with or without CamKII inhibitors (KN62 and KN93). Nuclear volume has been evaluated using the Imagej software. […] This experiment has been repeated three time.

CamKII = conditions: cited from earlier work
[3] = tested on: S3 transgenic line (mutated human Cx32 S26L); experiment: Rotarod locomotor test, S3 transgenic line; format: in vivo, mouse
Protocol: (§2) Transgenic animals received intraperitoneal injections, either with a placebo (0.9% physiological serum) or with KN 93 (1.5 mg/kg). Treatment took place every day for one month.
(§3) Locomotor ability was tested using the rotarod procedure, requiring motor coordination and balance control. A machine manufactured by Bioseb was used for this purpose. A previously used procedure (Norreel et al., 2001) was adapted and two velocities (15 and 25) were used. Briefly, each mouse underwent the same 5-day procedure. The first two days were used to train the animals (five sessions of 2-min walking at a very low speed, i.e. five rotations per minute (r.p.m.)). The last three days were used to run the test sessions. Each day, the mice performed two series of five trials, a training speed with a 1-h rest period between the two series and a 5-min rest period between two consecutive trials. The software provided by Bioseb (Sedacom v1) was used to monitor the time the animals were on the rod.
Mouse (4) from the S3 transgenic line have been treated either with a placebo or with soluble KN93. Locomotor performances of the animals have been evaluated using the rotarod test after one month of treatment. Performances of WT and S3 treated with KN93, are not statistically different. On the contrary performances of S3 animals treated either with a placebo or with KN93 are highly statistically significant (p value<0.0001). Treatment has been stopped for one month and rotarod performances evaluated. Rotarod performances of KN 93 treated or placebo treated degrade and are not statistically different.

S3 fibroblasts [4] = experiment: Connexon activity, lucifer yellow uptake, 96 well plate; format: cell-based, mouse
Protocol: FIG. 3. A. Connexon activity in fibroblasts from WT, S3 and S3 treated with KN93 was monitored in a 96 well plate assay, using lucifer yellow as a fluorescent dye (see methods). Fluorescence is in arbitrary units. B, C and D. Connexon activity of WT mouse fibroblasts (B), S3 transgenic mouse (C) and S3 incubated with KN93 (D), were incubated with LY for two hours and examined under a fluorescent microscope.
One hundred thousand cells were cultured as described above for one day with or without CamKII inhibitors (KN62 or KN93 at a final concentration of 10 μM). Lucifer yellow (LY) was added to the medium (final concentration: 110 mM) and incubated for two hours. Fluorescence was recorded using a Perkin Elmer Victor 4 microplaque reader (excitation: 405 nm, emission: 535 nm).
Fibroblasts from WT and S3 (treated or not with KN93) have been cultured for 2 days in 96 wells microplaques. Lucifer yellow has been then added to the medium and fluorescence monitored after 2 hours (cell auto fluorescence and fluorescence of LY without cells, have been evaluated and substracted). This experiment has been repeated three time.

[5] = tested on: G2 transgenic line (mutated human Cx32 G12S); experiment: Rotarod locomotor test, G2 transgenic line; format: in vivo, mouse
Protocol: FIG. 4. Mice from the G2 line were treated either with a placebo (4 animals) or with soluble KN93 (4 animals, 1.5 mg/kg, i.p., 1 administration per day) for one month and performances on the rotarod evaluated. Treatment was then stopped and locomotor performances evaluated one month later.
as §2, §3
Mouse from the G2 transgenic line have been treated either with a placebo (4 animals) or with soluble KN93 (4 animals). Locomotor performances of the animals have been evaluated using the rotarod test after one month of treatment. Performances of WT and G2 treated with KN93, are not statistically different. On the contrary performances of G2 animals treated either with a placebo or with KN93 are highly statistically significant (p value<0.0001). Treatment has been stopped for one month and rotarod performances evaluated. Rotarod performances of KN 93 treated or placebo treated degrade and are not statically different.

| SMILES | Connexon activity at 0.1 μM (S3 cells) | Connexon activity at 1 μM (S3 cells) | Connexon activity at 10 μM (S3 cells) | Connexon activity at 50 μM (S3 cells) | >centro (percentage of cells with more than two centrosomes) (S3 fibroblasts [1]) [%] | 2 centro (percentage of cells with two centrosomes) (S3 fibroblasts [1]) [%] | 1 centro (percentage of cells with one centrosome) (S3 fibroblasts [1]) [%] | Effect on centrosome number per cell, in words (S3 fibroblasts [1]) | further results |
| --- | --- | --- | --- | --- | --- | --- | --- | --- | --- |
| COc1ccc(S(=O)(=O)N(CCO)c2ccccc2CN(C)C/C=C/c2ccccc2)cc1 [CM08-16, 2-hydroxy-S-(4-methoxyphenyl)-N′-[2-({methyl[(2E)-3-phenylprop-2-en-1-yl]amino}methyl)phenyl]ethane-1-sulfonamido] | 131 thousands of arbitrary fluorescence units | 142 thousands of arbitrary fluorescence units | 159 thousands of arbitrary fluorescence units | 160 thousands of arbitrary fluorescence units | – | – | – | – | – |
| COc1ccc(S(=O)(=O)N(CCO)c2ccccc2CN(C)Cc2ccc3ccccc3c2)cc1 [CM08-18, 2-hydroxy-S-(4-methoxyphenyl)-N′-(2-{[methyl(naphthalen-2-ylmethyl)amino]methyl}phenyl)ethane-1-sulfonamido] | 125 thousands of arbitrary fluorescence units | 150 thousands of arbitrary fluorescence units | 162 thousands of arbitrary fluorescence units | 174 thousands of arbitrary fluorescence units | – | – | – | – | – |
| COc1ccc(S(=O)(=O)N(CCO)c2ccccc2CN(C)Cc2ccccc2)cc1 [CM08-33, N-(2-{[benzyl(methyl)amino]methyl}phenyl)-2-hydroxy-S′-(4-methoxyphenyl)ethane-1-sulfonamido] | 162 thousands of arbitrary fluorescence units | 196 thousands of arbitrary fluorescence units | 189 thousands of arbitrary fluorescence units | 180 thousands of arbitrary fluorescence units | – | – | – | – | – |
| COc1ccc(S(=O)(=O)N(CCO)c2ccccc2CN(C)CCCc2ccc(Cl)cc2)cc1 [CM08-40, N-[2-({[3-(4-chlorophenyl)propyl](methyl)amino}methyl)phenyl]-2-hydroxy-S′-(4-methoxyphenyl)ethane-1-sulfonamido] | 169 thousands of arbitrary fluorescence units | 169 thousands of arbitrary fluorescence units | 167 thousands of arbitrary fluorescence units | 162 thousands of arbitrary fluorescence units | – | – | – | – | – |
| CN([C@@H](Cc1ccc(OS(=O)(=O)c2cccc3cnccc23)cc1)C(=O)N1CCN(c2ccccc2)CC1)S(=O)(=O)c1cccc2cnccc12 [KN62, 1-[N,Obis(5-isoquinolinesulfonyl)-N-methyl-L-tyrosyl]-4-phenylpiperazine] | – | – | – | – | 6 | 32 | 62 | returns to close to normal | Nuclear Volume (S3 fibroblasts [2]): 10100; Effect on nuclear (cellular) volume, in words (S3 fibroblasts [2]): restitution of normal cellular volume |
| COc1ccc(S(=O)(=O)Nc2ccccc2CN(C)C/C=C/c2ccc(Cl)cc2)cc1 [KN92] | – | – | – | – | 20 | 20 | 60 | unchanged | CamKII inhibitory activity, in words (CamKII): no CamKII inhibitory activity |
| COc1ccc(S(=O)(=O)N(CCO)c2ccccc2CN(C)C/C=C/c2ccc(Cl)cc2)cc1 [KN93] | – | – | – | – | 7 | 20 | 73 | returns to close to normal | Degradation of locomotor capacities, in words ([3]; S3 animals, soluble form 1.5 mg/kg i.p. per day): lowered; Locomotion after stopping the treatment, in words ([3]; S3 animals, treatment stopped): strong degradation of locomotion; Mean Minutes on rotarod, W4 treated ([3]; S3 line, 1.5 mg/kg i.p. per day for one month, T0 2.7, W4 placebo 2.1): 2.5 min; Mean Minutes on rotarod, W4 treated + 1 month arrest ([3]; S3 line, one month after stopping treatment, placebo + arrest 1.5): 1.41 min; Nuclear Volume (S3 fibroblasts [2]): 11000; Effect on nuclear (cellular) volume, in words (S3 fibroblasts [2]): restitution of normal cellular volume; Effect on connexon activity, in words (S3 fibroblasts [4]; S3 cells treated with KN93): significantly improved though not totally restored; LY intensity (S3 fibroblasts [4]; S3 fibroblasts, KN93 10 μM, fluorescence 2 hours after lucifer yellow, WT 63, untreated S3 17): 28 +/− 9 arbitrary units; Effect on progression of locomotor phenotype, in words ([5]; G2 animals, soluble form 1.5 mg/kg i.p. per day): significantly lowers the progression of the phenotype; Locomotor activity after treatment stopped, in words ([5]; G2 animals, treatment stopped after one month): rapid degradation of the locomotor activity ensued; Mean Minutes on rotarod, W4 treated ([5]; G2 line, 1.5 mg/kg i.p. per day for one month, T0 3.90, W4 placebo 3.20): 3.6 min; Mean Minutes on rotarod, W4 treated + 1 month arrest ([5]; G2 line, one month after stopping treatment, placebo + arrest 2.84): 2.9 min; Connexon activity, KN93 reference column (S3 cells; KN93 10 μM, 24 hours, WT 230, untreated S3 126-129): 191 thousands of arbitrary fluorescence units |
